This experiment relates to STHdh^Q111 cells. In words: 384-well PI (propidium iodide) assay, protection from mHTT induced cell death. Type of experiment: cell-based, mouse. To be noted: FIG. 10. As for the experimental part:
The well-established STHdh^Q111 cell model for HD was employed to identify compounds that can protect neuronal cells from mHTT-dependent cell death. […] The propidium iodide (PI) readout enables an unbiased assessment of cell death by measuring an irreversible step that is common to all cytotoxic mechanisms.
The stress conditions for testing compounds involved incubation of the cells in serum-free medium at 37° C. and 5% CO2.
Prior to compound treatment, medium was removed and the cells washed once with PBS (pH=7.4) after which 45 μl of complete medium was added. Compounds in 5 μl complete medium were added to cells. […] Compounds in serum free medium (5 μl) were added and cells were incubated at 37° C. and 5% CO2.
Image analysis was carried out using the Multiwavelength Cell Scoring application in the MetaXpress software. The nuclear compartment was identified in Ch1 with a threshold intensity of 2,000 above background and the Texas Red compartment was identified in Ch2 with a threshold intensity of 20,000 above background.
For the analyses presented here the Percent Recovery was calculated from the Percent PI positive cells by:
[formula] where positive controls are the STHdh^Q7 cells, and negative controls are the STHdh^Q111 cells treated with DMSO
The LOPAC library was screened in the 384-well PI assay at 30, 10, and 3 μM.

Turning to `CCOc1ccc2nc(S(C)(=O)=O)sc2c1` [methyl sulfonyl analog of ETX, 6-ethoxy-2-(methylsulfonyl) benzo[d]thiazole], the “efficacy relative to ethoxzolamide” value is reported as “equally efficacious”. Under “maximal protection”, the “STHdh^Q111 cells protected” value is reported as approximately 50%. Further, for the setting “propidium iodide assay”, the “potency in protecting STHdh^Q111 cells relative to ETX” value amounted to 7 fold.

For the origin of these results see patent US11253594B2, “Drug combinations for protecting against neuronal cell death” (UNIVERSITY OF PITTSBURGH-OF THE COMMONWEALTH SYSTEM OF …, priority 2017, dated 2022).
